The text below walks through data of PMC4519900 (International Journal of Molecular Sciences, 2015).

Like-named read-outs stand apart in the source and are kept apart here.

The target in experiment [1] is T1, A. suum QFR (complex II) (Ascaris suum, UniProt O44074+P92506+P92507).
T1 construct: from tissue; host or cells: adult Ascaris suum muscle, mitochondrial fraction
Put plainly: SQR activity assay of A. suum complex II (QFR) in mitochondrial fraction, UQ2 consumption at 278 nm. In kind it is biochemical. The method, then:
(§1) The CP buffer containing the prepared mitochondrial fraction was replaced with 50 mM Tris–HCl buffer, pH 7.4 containing 1 mM disodium malonate, 210 mM mannitol, 10 mM sucrose, and 1 mM EDTA. Final concentrations of the A. suum and porcine mitochondria (quantified protein) were adjusted to 10 and 20 mg/mL, respectively. Mitochondrial fractions were separated in 50 μL aliquots, frozen by liquid nitrogen and stored at 193 K until use. Prior to assay, the mitochondrial suspensions were thawed on ice and SQR was reactivated by incubation at 298 K for 30 min in equal volume of 50 mM potassium phosphate buffer pH 7.4, containing 337 μM disodium malonate. SQR assay buffer composed of 50 mM potassium phosphate buffer pH 7.4, 0.1% SML, 2 mM potassium cyanide, and 60 μM of 2,3-dimethoxy-5-methyl-6-geranyl-1,4-benzoquinone (UQ2) was pre-equilibrated at 298 K for 20 min. The assay mixture was constituted by adding 15 μg (A. suum) or 30 μg (porcine) of reactivated mitochondrial fraction to the assay buffer and incubated for 3 min for background activity measurements. The SQR activity was initiated by the addition of 10 mM disodium succinate, and recorded as rate of UQ2 consumption, monitored at 278 nm (ε278 = 15 mM^−1·cm^−1) for three minutes in 1 mL quartz cuvettes with a Shimadzu UV-3000 dual wavelength spectrophotometer (Shimazu, Kyoto, Japan). Inhibition of SQR activities were assayed in the presence of varying concentration of inhibitors (diluted in DMSO) and the IC50s calculated as the concentration of inhibitor that caused 50% decrease in SQR activity relative to control (DMSO).

The next experiment concerns the target T2, porcine SQR (complex II) (Sus scrofa, UniProt A5GZW8+D0VWV4+Q007T0).
T2 construct: from tissue; host or cells: porcine heart muscle, mitochondrial fraction
Put plainly: SQR activity assay of porcine complex II in mitochondrial fraction, UQ2 consumption at 278 nm. In kind it is biochemical. The method, then:
as §1

Experiment [2] addresses T1, A. suum QFR (complex II). Particulars: read-out: IC50 for A. suum QFR; cited from earlier work.
Another experiment deals with bovine SQR. Set-up: method as in PMID 3209470, PMID 12515859, PMID 19242645. Particulars: cited from earlier work.
[3] abbreviates: porcine complex II, SQR assay, 298 K, pH 7.4, read-out: IC50 (SQR).

T1 sequence (Q33862 19-645): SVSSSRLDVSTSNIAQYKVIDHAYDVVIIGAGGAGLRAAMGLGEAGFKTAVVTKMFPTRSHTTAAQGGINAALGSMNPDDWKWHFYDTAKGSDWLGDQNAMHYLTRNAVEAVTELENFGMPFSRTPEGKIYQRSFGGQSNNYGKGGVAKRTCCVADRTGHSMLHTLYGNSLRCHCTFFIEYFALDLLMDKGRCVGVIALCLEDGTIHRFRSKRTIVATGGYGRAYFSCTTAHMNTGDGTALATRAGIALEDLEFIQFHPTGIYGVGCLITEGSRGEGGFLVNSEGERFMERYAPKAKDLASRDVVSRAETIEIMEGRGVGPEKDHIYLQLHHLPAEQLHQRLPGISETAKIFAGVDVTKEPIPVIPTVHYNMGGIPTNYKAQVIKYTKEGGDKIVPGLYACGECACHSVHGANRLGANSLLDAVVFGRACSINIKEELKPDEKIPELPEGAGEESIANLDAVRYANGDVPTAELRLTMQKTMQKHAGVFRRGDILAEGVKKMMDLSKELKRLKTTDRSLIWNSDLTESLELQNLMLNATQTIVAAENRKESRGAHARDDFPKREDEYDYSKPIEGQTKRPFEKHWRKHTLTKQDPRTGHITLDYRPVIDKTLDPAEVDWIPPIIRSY
T1 sequence (P92507 26-156): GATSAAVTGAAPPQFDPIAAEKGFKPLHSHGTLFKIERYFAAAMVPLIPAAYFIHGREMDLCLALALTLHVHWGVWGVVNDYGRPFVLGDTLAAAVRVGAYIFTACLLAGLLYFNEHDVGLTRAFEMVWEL
T1 sequence (P92506 32-188): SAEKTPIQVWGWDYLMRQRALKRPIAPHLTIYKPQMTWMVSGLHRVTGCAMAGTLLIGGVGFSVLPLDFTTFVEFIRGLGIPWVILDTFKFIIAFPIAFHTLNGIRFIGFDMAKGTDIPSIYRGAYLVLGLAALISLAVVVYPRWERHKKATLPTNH
T1 sequence (O44074 22-282): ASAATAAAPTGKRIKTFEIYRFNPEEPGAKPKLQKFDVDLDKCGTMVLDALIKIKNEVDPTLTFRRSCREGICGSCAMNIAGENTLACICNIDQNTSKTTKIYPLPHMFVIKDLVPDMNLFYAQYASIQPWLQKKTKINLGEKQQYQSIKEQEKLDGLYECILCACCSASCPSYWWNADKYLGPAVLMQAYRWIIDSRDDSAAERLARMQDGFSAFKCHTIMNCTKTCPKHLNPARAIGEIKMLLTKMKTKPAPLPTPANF
T2 sequence (Q007T0 29-280): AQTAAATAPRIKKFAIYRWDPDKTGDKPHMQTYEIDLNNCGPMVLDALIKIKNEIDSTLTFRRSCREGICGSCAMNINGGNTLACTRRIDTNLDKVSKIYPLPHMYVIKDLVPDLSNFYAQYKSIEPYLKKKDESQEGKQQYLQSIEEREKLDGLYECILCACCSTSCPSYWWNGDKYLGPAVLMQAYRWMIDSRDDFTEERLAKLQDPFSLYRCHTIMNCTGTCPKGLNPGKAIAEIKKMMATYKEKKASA
T2 sequence (D0VWV4 30-169): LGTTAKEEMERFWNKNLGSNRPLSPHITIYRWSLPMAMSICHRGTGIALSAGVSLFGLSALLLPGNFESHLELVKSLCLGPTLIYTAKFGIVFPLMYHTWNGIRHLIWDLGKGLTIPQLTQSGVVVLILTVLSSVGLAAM
T2 sequence (A5GZW8 57-159 limits assumed): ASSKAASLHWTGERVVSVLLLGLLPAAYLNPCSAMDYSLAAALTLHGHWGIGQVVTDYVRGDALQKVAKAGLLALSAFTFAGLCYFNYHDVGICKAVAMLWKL
T2 sequence (Q0QF01 43-664 partner): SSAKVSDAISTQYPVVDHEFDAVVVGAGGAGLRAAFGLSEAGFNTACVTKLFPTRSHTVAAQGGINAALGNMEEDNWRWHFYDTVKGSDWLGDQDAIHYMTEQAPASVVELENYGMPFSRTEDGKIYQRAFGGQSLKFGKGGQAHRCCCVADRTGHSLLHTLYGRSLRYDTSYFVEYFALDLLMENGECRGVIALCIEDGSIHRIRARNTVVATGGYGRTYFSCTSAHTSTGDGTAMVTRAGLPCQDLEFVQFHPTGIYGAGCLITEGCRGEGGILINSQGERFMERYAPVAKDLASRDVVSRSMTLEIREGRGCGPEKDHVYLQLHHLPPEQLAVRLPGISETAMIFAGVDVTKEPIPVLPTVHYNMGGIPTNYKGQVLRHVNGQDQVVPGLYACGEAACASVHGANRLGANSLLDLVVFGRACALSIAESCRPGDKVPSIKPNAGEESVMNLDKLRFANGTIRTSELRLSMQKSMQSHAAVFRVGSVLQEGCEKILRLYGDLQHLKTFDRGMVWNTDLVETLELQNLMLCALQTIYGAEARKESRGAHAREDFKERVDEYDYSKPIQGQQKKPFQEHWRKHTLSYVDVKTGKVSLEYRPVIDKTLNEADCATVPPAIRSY

By IC50 is commonly meant the concentration that inhibits the measured activity by half. In turn, `O=C(NCc1ccc(Cl)cc1Cl)c1ccccc1C(F)(F)F` [NN28] yielded a half-maximal inhibitory concentration (IC50) at A. suum QFR (complex II) [1] of 28 nM. The “IC10 against porcine SQR” value against porcine SQR (complex II) (porcine complex II, SQR assay) was over 90000 nM.
With `O=C(Nc1cccc(Oc2ccccc2)c1)c1ccccc1C(F)(F)F` [derivative 4], the IC50 stood at 79.4 nM on A. suum QFR (complex II) [1] and 16200 nM at porcine SQR (complex II) (setting [3]).
For `CC(C)Oc1cccc(NC(=O)c2ccccc2C(F)(F)F)c1` [flutolanil, N-[3-(isopropyloxy)phenyl]-2-(trifluoromethyl)benzamide, reference compound], the IC50 on A. suum QFR (complex II) [1] is 58.1 nM; against A. suum QFR (complex II) [1] (IC50 (QFR), A. suum complex II, SQR assay, 298 K, pH 7.4), 58 nM; against porcine SQR (complex II), 45900 nM.
For `CC(C)Oc1cccc(NC(=O)c2ccccc2I)c1` [derivative 1], the IC50 on A. suum QFR (complex II) [1] is 72.3 nM; on porcine SQR (complex II) (setting [3]), 6430 nM.
Turning to `O=C(Nc1cccc(Oc2c(F)c(F)c(F)c(F)c2F)c1)c1ccccc1C(F)(F)F` [derivative 6], the IC50 against A. suum QFR (complex II) [1] was 330 nM; at porcine SQR (complex II) (setting [3]) it was 236000 nM.
For `CN(C)Cc1cccc(NC(=O)c2ccccc2C(F)(F)F)c1` [derivative 3], the half-inhibitory concentration (IC50) on A. suum QFR (complex II) [1] is 3420 nM; on porcine SQR (complex II) (setting [3]), 256000 nM. At A. suum QFR (complex II) [1], the “increase of IC50 for A. suum QFR relative to flutolanil” value was 59 fold. Besides, the “increase of IC50 for porcine SQR relative to flutolanil” value at porcine SQR (complex II) (versus flutolanil) came out at 6 fold.
In the case of `O=C(Nc1cccc(-c2ccccc2)c1)c1ccccc1C(F)(F)F` [derivative 5], the results for the IC50 at A. suum QFR (complex II) [1] and on porcine SQR (complex II) (setting [3]) were 24.5 nM and 8610 nM, respectively.
Take `CC(C)(C)c1ccc(CNC(=O)c2ccccc2C(F)(F)F)cc1` [NN23]: the half-maximal inhibitory concentration (IC50) at A. suum QFR (complex II) [1] stood at 5.5 nM; at porcine SQR (complex II) (setting [3]) it was 111000 nM. The “selectivity index (IC50 porcine SQR / IC50 A. suum QFR)” value on A. suum QFR (complex II) [1] (A. suum QFR versus porcine SQR) is listed as “about 20,000 folds”.
Regarding `COc1[nH]c(=O)c(C(=O)[C@@H](C)C[C@H](C)[C@@H](Cl)CCl)c(O)c1OC` [Atpenin A5], the half-maximal inhibitory concentration (IC50) is 12 nM on A. suum QFR (complex II) [2] and 3.6 nM in the experiment on bovine SQR.
Consider `Cc1ccccc1C(=O)Nc1cccc(OC(C)C)c1` [derivative 2], for which the IC50 at A. suum QFR (complex II) [1] worked out at 515 nM; on porcine SQR (complex II) (setting [3]), 90000 nM.
